Results published in patent US20250123282A1, “METHODS FOR EVALUATION AND TREATMENT OF TYROSINE KINASE INHIBITOR (TKI)-RESISTANT ACUTE MYELOID LEUKEMIA” (LOMA LINDA UNIVERSITY, priority 2021, published 2025).

How the values were obtained:
MV4-11 cells [1] = test: FACS time course of CD44+pBAD+ and Ki67+CD33+CD44+ populations in TKI-treated MV4-11; format: cell-based, human
Source text: (§1) To follow the cell fate of TKI-treated MV4-11 and MOLM-14, culturing of blasts were continued by performing medium change every 2-3 days. […] The BAD protein is a pro-apoptotic member of the BCL-2 gene family, which is involved in initiating apoptosis. Dephosphorylated BAD is pro-apoptotic by binding BCL-2 and inactivating BCL-2, while phosphorylated BAD (pBAD) is anti-apoptotic by leaving BCL-2 free to inhibit BAX-triggered apoptosis.
(§2) Small Molecular Inhibitors and in vitro & ex vivo Treatment. […] The dose of 80 nM for the four TKIs was selected based on their dose-dependent cytotoxicity in previous reports. […] Both GILT and QUIZ were reported to start to suppress the tumorigenic clustering and c-Kit at the dose of 80 nM. […] The combination of 5 μM 5-Azacitidine (AZA) and 80 nM 1α,25-Dihydroxyvitamin D3 (VD3) was added to the experimental group similar to the previous report. As combination agents to treat blasts in vitro, one dose of 80 nM GILT with one dose of either 100 nM Venetoclax (BCL2 inhibitor), 10 μM (R)-Lisofylline (STAT4 inhibitor), 100 nM AZD1208 (PIM inhibitor), 500 nM PF-06826647 (TYK2 inhibitor), or 500 nM AT9283 (JAK2/3 inhibitor) were added to 1 ml of 1×10^6 cells for each experimental group in 24 well plates. Three days after the one dose treatment, cells were then collected for either analyses by FACS and qPCR, or re-plated into 24 well plates for continued culture. At different time points, re-plated cells were collected for analyses by FACS and qPCR. Medium change was performed every 2-3 days.
Flow Cytometry (FACS). Cells were harvested and examined for the expression of cell surface biomarkers (CD) and intracellular proteins by multichromatic FACS as previously described. About 1×10^4˜10^6 cells in 100 μl FACS buffer (PBS containing 1% FBS and 0.05% sodium azide) were stained with various fluorescence-conjugated antibodies specific for the desired cell surface proteins at 4° C. for 30 min. The surface-stained cells were then fixed and permeabilized using the appropriate reagents (e.g. the BD Pharmingen Cytofix/Cytoperm buffer) and stained with different fluorescence-conjugated antibodies specific for the desired intracellular proteins at 4° C. for 2 hours in the permeabilizing buffer (e.g. the BD Perm/Wash buffer). Concentrations of the Abs were used per the manufacturers' recommendations. Finally, the cells were washed twice in the permeabilizing buffer and twice in the FACS buffer before being analyzed on the BD FACSAria II. Data was analyzed using the FlowJo software (Tree Star Inc., Ashland, OR).

MV4-11 cells [2] = test: Human cytokine proteome profile array of cell-free supernatants from GILT-treated MV4-11; format: cell-based; conditions: 80 nM GILT, MV4-11, vs non-treatment control
Method: To identify the protein(s) responsible for initiation of the survival mechanism and subsequent proliferation of AML blasts, human cytokine proteome profile arrays of cell-free supernatants from GILT-treated MV4-11's cultures were performed. […] Under the no treatment (No Tx) condition, MV4-11 releases numerous cytokines such as MIF in their supernatant; however, one dose of GILT-treatment eliminated release of a variety of cytokines such as osteopontin (arrows, FIG. 7A), a protein closely associated with adverse prognosis in AML patients. Next, bone marrow mononuclear cells (BMMNC) from AML patients were treated for 3 days ex vivo.
Proteomics and Blotting Analysis. Three days after the one dose treatment, the cell-free supernatants were collected for human cytokine profile assay. The Human XL Cytokine Array Kit (Catalog #ARY022B, R&D) was used according to the manufacturer's procedures and exposed to X-ray film (<10 minutes). Profiles of mean spot pixel density were created using a transmission-mode scanner and Image J analysis software.

MV4-11 cells [3] = test: qPCR analyses of gene expression changes in TKI-treated MV4-11; format: cell-based, human
Source text: MV4-11 cells (3 days after TKI treatment) were harvested and analyzed by reverse transcription quantitative polymerase chain reaction (qPCR). The qPCR data of four genetic aspects including cell death, kinases specialized in phosphorylation of BAD, JAK/STAT signaling pathway, and intrinsic inhibitory pathways were compared. […] Next, to investigate which kinases are responsible for the phosphorylation of BAD (pBAD) after TKI treatment, screenings of those kinase candidates reported to phosphorylate BAD under physiological conditions were conducted. […] Elevated gene expressions of both PIM2 and PIM3 have been found in adult AML patients associated with poor survival.
as §2
RNA Isolation and Real-Time Polymerase Chain Reaction (qPCR) analysis. MV4-11 and MOLM-14 cells were cultured with the presence of TKI drugs for 72 hours or re-plated 28 days after the treatment of TKI drugs. Cells were isolated for RNA isolation and qPCR analysis as previously described. Total RNA was isolated using the RNeasy Micro Kit (Qiagen) according to the manufacturer's instruction. First-strand cDNA was synthesized using the SuperScript III Reverse Transcriptase (Invitrogen; Life Technologies). With an Applied Biosystems 7900HT Real-Time PCR machine, qPCR was performed and analyzed using known primers for the specific markers. The PCR conditions were 10 minutes at 95° C. followed by 40 cycles of 10 seconds at 95° C. and 15 seconds at 60° C. The relative expression level of a gene was determined using the ΔΔCt method and normalized to GAPDH.

MV4-11 cells [4] = test: Phase-bright imaging of re-growth of TKI-treated MV4-11; format: cell-based, human
Source text: as §1, §2
Imaging Acquisition. Phase-bright images were taken using an Olympus 1X71 inverted microscope and were processed using an Olympus cellSens Dimension 1.15 Imaging Software.

MV4-11 = conditions: cited from earlier work
[5] = MV4-11, 10 days after TKI treatment
[6] = MV4-11, 20 days after TKI treatment
[7] = MV4-11, 3 days after TKI treatment, vs control
[8] = MV4-11, 3 days after TKI treatment, vs control non-treatment cells
[9] = MV4-11, 28 days after TKI treatment
[10] = MV4-11, 10 days after TKI treatment, vs non-treatment control
[11] = MV4-11, 28 days after the treatment
[12] = MV4-11, 28 days after the treatment, vs control non-treatment cells

## CCc1nc(C(N)=O)c(Nc2ccc(N3CCC(N4CCN(C)CC4)CC3)c(OC)c2)nc1NC1CCOCC1 [GILT, Gilteritinib]
MV4-11 cells [1]; [5]
  population of viable CD44+pBAD+ cells: 28.7%
  population of viable Ki67+CD33+CD44+ cells: 17.4%
MV4-11 cells [1]; [6]
  population of viable CD44+pBAD+ cells: 1.1%
  population of viable Ki67+CD33+CD44+ cells: 1.27%
MV4-11 cells [2]
  MIF increase in the supernatant (mean pixel density): 2.6 fold
MV4-11 cells [3]; MV4-11, 80 nM TKI, vs non-treated control
  NFκB2 mRNA increase: 110 fold
MV4-11 cells [3]; MV4-11, 3 days after TKI treatment
  CXCR2 mRNA increase: 109 fold
MV4-11 cells [3]; [7]
  AKT1 mRNA increase: 10 fold
  PRKACA mRNA increase: 15 fold
MV4-11 cells [3]; [8]
  BAD mRNA increase: 23 fold
  BAX mRNA increase: 68 fold
  BCL-2 mRNA increase: 49 fold
  JAK2 mRNA increase: 6 fold
  PIAS2 mRNA increase: about 2 fold
  PIM2 mRNA increase: 203 fold
  PIM3 mRNA increase: 134 fold
  SHP1 mRNA increase: about 4 fold
  SHP2 mRNA increase: 9 fold
  SOCS1 mRNA increase: 153 fold
  SOCS3 mRNA increase: 182 fold
  STAT2 mRNA increase: 9 fold
  STAT3 mRNA increase: 2 fold
  STAT4 mRNA increase: 23 fold
  STAT5A mRNA increase: 4 fold
  TYK2 mRNA increase: 71 fold
MV4-11 cells [3]; MV4-11, 3 days after TKI treatment, data not shown
  CXCR1 mRNA increase: about 90 fold

## CC(C)(C)c1cc(NC(=O)Nc2ccc(-c3cn4c(n3)sc3cc(OCCN5CCOCC5)ccc34)cc2)no1 [QUIZ, Quizartinib]
MV4-11 cells [1]; [5]
  population of viable CD44+pBAD+ cells: 93.1%
  population of viable Ki67+CD33+CD44+ cells: 68.2%
MV4-11 cells [1]; [6]
  population of viable CD44+pBAD+ cells: 20.7%
  population of viable Ki67+CD33+CD44+ cells: 52.8%
MV4-11 cells [1]; [9]
  population of viable CD44+pBAD+ cells: 0.24%
  population of viable Ki67+CD33+CD44+ cells: 1.58%
MV4-11 cells [4]; 10 days after TKI treatment
  re-growth / tumorigenic clusters of MV4-11: few newly formed tumorigenic clusters
MV4-11 cells [4]; 20 days after TKI treatment
  re-growth / tumorigenic clusters of MV4-11: many tumorigenic clusters
MV4-11 cells [4]; 28 days after TKI treatment
  re-growth / relapse of MV4-11: grew confluent without tumorigenic clusters
MV4-11 cells [3]; [8]
  BAD mRNA increase: 16 fold
  BAX mRNA increase: 44 fold
  BCL-2 mRNA increase: 31 fold
  JAK2 mRNA increase: 6 fold
  PIAS2 mRNA increase: about 2 fold
  PIM1 mRNA decrease: 0.5 fold
  PIM2 mRNA increase: 120 fold
  PIM3 mRNA increase: 81 fold
  SHP1 mRNA increase: about 3 fold
  SHP2 mRNA increase: 5 fold
  SOCS1 mRNA increase: 88 fold
  SOCS3 mRNA increase: 120 fold
  STAT2 mRNA increase: 6 fold
  STAT4 mRNA increase: 19 fold
  TYK2 mRNA increase: 46 fold
MV4-11 cells [3]; [10]
  PIAS2 mRNA increase: 570 fold
  PIM2 mRNA increase: 355 fold
  PIM3 mRNA increase: 494 fold
  SHP2 mRNA increase: 9 fold
  SOCS1 mRNA increase: 615 fold
  SOCS3 mRNA increase: 590 fold
  STAT2 mRNA increase: 14 fold
  STAT4 mRNA increase: 28 fold
  TYK2 mRNA increase: 73 fold
MV4-11 cells [3]; [11]
  PIM2 mRNA increase: about 2 fold
  PIM3 mRNA increase: about 2 fold
MV4-11 cells [3]; [12]
  CISH mRNA increase: about 2 fold
  SOCS1 mRNA increase: ~4 fold
  SOCS3 mRNA increase: about 2 fold
MV4-11
  dose at which suppression of tumorigenic clustering and c-Kit starts: 80 nM
